# Results: patent publication US11484564B2, “Adhesion prevention material” (priority 2017, dated 2022)
# “Also recorded” adds a separate entry of the source. Non-standard residues stand in square brackets, D forms with d. No end group written: not given here. Hyp = O=C(O)[C@@H]1C[C@@H](O)CN1
# Test system: flexor digitorum profundus tendon
# Assay: Evaluation of antiadhesive effect in cut and sutured flexor digitorum profundus tendon (adhesion score, 3 portions)
# Assay type: in vivo, rabbit
# Settings: 0.15 mL, 2 weeks
# Experimental: As supplied animals, 13-week old rabbits (Kbl: JW, male) were used. By the same procedure as in the above-described Test Example 1, anesthesia, hair removal, holding, and sterilization were performed. Next, the skin covering a metatarsus of the left hind limb was incised longitudinally under anesthesia to expose flexor tendons. Among the exposed flexor tendons, a flexor digitorum profundus tendon was cut by sharp dissection using a scalpel. Then, the dissected region of the flexor digitorum profundus tendon was sutured with a suture (trade name: “6-0 Prolene”, Ethicon, Inc.) by a modified Kessler technique, hemostasis and washing with physiological saline were performed. Then, test samples were administered to the exposed flexor digitorum profundus tendon and its surroundings. The test samples were administered as follows. […] Then, the incised portion was sutured with a suture (trade name: “5-0 suture with needle for clinical use”, Matsuda Ika Kogyo CO., LTD.). The rabbit was fed with an e-collar around the neck to prevent self-injurious behavior. At 2 weeks after administration of the test sample, the rabbit was painlessly sacrificed by an overdose of Somnopentil (a trade name “pentobarbital sodium”, Kyoritsu Seiyaku Corporation) by auricular vein administration. The operated site was incised again, and degrees of adhesion were evaluated according to the criteria with respect to the following three portions: between flexor digitorum profundus tendon and gliding floor, between flexor digitorum profundus tendon and flexor digitorum superficialis tendon, and between flexor digitorum profundus tendon and other surrounding tissues. The total of the scores of the three portions was designated as a score for the individual. <Evaluation Criteria> 0: No adhesion 1: Easily dissectable from surrounding tissues by blunt dissection 2: Dissectable from surrounding tissues by blunt dissection 3: Dissection from surrounding tissues requires slightly sharp dissection 4: Dissection from surrounding tissues requires completely sharp dissection
# [1] = Test Example 7, peptide 30% by weight with gel powder (B) 20% by weight
# [2] = Test Example 9, tripeptide 30% by weight with gel powder (B) 20% by weight
# [3] = Test Example 5, peptide 30% by weight with crosslinked-gelatin sponge gel powder (B) 20% by weight
# [4] = Test Example 6, peptide 30% by weight with gel powder (B) 20% by weight
substance,measurement,setting,value
(Gly-Pro-Hyp)5 [oligopeptide 1],antiadhesive effect,[1],antiadhesive effects were observed
(Gly-Pro-Hyp)10 [polypeptide 1],antiadhesive effect,[1],antiadhesive effects were observed; also recorded: lower than those in tripeptide 4 and oligopeptide 1
Arg-Pro-[Hyp] [tripeptide 7],antiadhesive effect,[2],antiadhesive effects were observed
Asn-Pro-[Hyp] [tripeptide 6],antiadhesive effect,[2],antiadhesive effects were observed
"Gly-Ala-[Hyp] [tripeptide 2, reference compound]",antiadhesive effect,[3],the antiadhesive effect was inferior to the case in which peptide mixture 1 was used
"Gly-Pro [dipeptide 2, reference compound]",antiadhesive effect,[4],the antiadhesive effect was decreased
"Gly-Pro-Ala [tripeptide 3, reference compound]",antiadhesive effect,[3],the antiadhesive effect was inferior to the case in which peptide mixture 1 was used
Gly-Pro-[Hyp] [tripeptide 4],antiadhesive effect,[3],the same antiadhesive effect as in the case in which both peptide mixture 1 and the crosslinked-gelatin sponge gel were administered was observed
same,antiadhesive effect,[4],contribute to the antiadhesive effect
same,antiadhesive effect,[1],antiadhesive effects were observed
same,antiadhesive effect,[2],antiadhesive effects were observed
Ile-Pro-[Hyp] [tripeptide 5],antiadhesive effect,[2],antiadhesive effects were observed
Pro-Hyp [dipeptide 1],antiadhesive effect,[4],contribute to the antiadhesive effect
Tyr-Pro-[Hyp] [tripeptide 8],antiadhesive effect,[2],antiadhesive effects were observed
